In PubChem BioAssay (NCI):
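Values below derive from 48-hour exposures of cells grown in 96-well plates, with endpoints linearly interpolated between the two concentrations bracketing the appropriate inhibition level. The concentration for full growth arrest is given as TGI.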

Tests used:
Test in all cases: inhibition of tumour cell growth, NCI panel, 48 h
MOLT-4 leukemia = test system: MOLT-4 leukemia
TK-10 renal = test system: TK-10 renal
KM12 colon = test system: KM12 colon
NCI-H226 lung = test system: NCI-H226 lung
UACC-257 melanoma = test system: UACC-257 melanoma
RXF 393 renal = test system: RXF 393 renal
HT29 colon = test system: HT29 colon
HCT-15 colon = test system: HCT-15 colon
NCI-H522 lung = test system: NCI-H522 lung
A549 NSCLC = test system: A549 NSCLC
OVCAR-3 ovarian = test system: OVCAR-3 ovarian
T-47D breast = test system: T-47D breast
SNB-75 CNS = test system: SNB-75 CNS
UO-31 renal = test system: UO-31 renal
SK-MEL-2 melanoma = test system: SK-MEL-2 melanoma
K-562 leukemia = test system: K-562 leukemia
M14 melanoma = test system: M14 melanoma
SF-295 CNS = test system: SF-295 CNS
DU-145 prostate = test system: DU-145 prostate
HCC-2998 colon = test system: HCC-2998 colon
SF-268 CNS = test system: SF-268 CNS
U251 CNS = test system: U251 CNS
SNB-19 CNS = test system: SNB-19 CNS
OVCAR-8 ovarian = test system: OVCAR-8 ovarian
MDA-MB-435 = test system: MDA-MB-435
CAKI-1 renal = test system: CAKI-1 renal
EKVX NSCLC = test system: EKVX NSCLC
NCI-H460 lung = test system: NCI-H460 lung
MDA-MB-231 breast = test system: MDA-MB-231 breast
SR leukemia = test system: SR leukemia
MALME-3M melanoma = test system: MALME-3M melanoma
SK-MEL-5 melanoma = test system: SK-MEL-5 melanoma
786-0 renal = test system: 786-0 renal
HS 578T breast = test system: HS 578T breast
HCT-116 colon = test system: HCT-116 colon
A498 renal = test system: A498 renal
UACC-62 melanoma = test system: UACC-62 melanoma
PC-3 prostate = test system: PC-3 prostate
HOP-92 NSCLC = test system: HOP-92 NSCLC
SK-MEL-28 melanoma = test system: SK-MEL-28 melanoma
COLO 205 colon = test system: COLO 205 colon
CCRF-CEM leukemia = test system: CCRF-CEM leukemia
LOX IMVI melanoma = test system: LOX IMVI melanoma
RPMI-8226 leukemia = test system: RPMI-8226 leukemia
SK-OV-3 ovarian = test system: SK-OV-3 ovarian
HOP-62 NSCLC = test system: HOP-62 NSCLC
HL-60(TB) leukemia = test system: HL-60(TB) leukemia
OVCAR-4 ovarian = test system: OVCAR-4 ovarian
NCI/ADR-RES ovarian = test system: NCI/ADR-RES ovarian
IGROV1 ovarian = test system: IGROV1 ovarian
ACHN renal = test system: ACHN renal
BT-549 breast = test system: BT-549 breast
NCI-H23 lung = test system: NCI-H23 lung
SW-620 colon = test system: SW-620 colon
OVCAR-5 ovarian = test system: OVCAR-5 ovarian
MCF7 breast = test system: MCF7 breast
SF-539 CNS = test system: SF-539 CNS
SN12C renal = test system: SN12C renal

For `C#CCNC(Cc1ccccc1)C(=O)O` (stereo not given), the TGI (MOLT-4 leukemia) was > 100 µM, the TGI (TK-10 renal) was > 100 µM and the TGI (KM12 colon) was > 100 µM. The TGI (NCI-H226 lung) was > 100 µM, the TGI (UACC-257 melanoma) was > 100 µM and the TGI (RXF 393 renal) was > 100 µM. The TGI (HT29 colon) was > 100 µM, the TGI (HCT-15 colon) was > 100 µM and the TGI (NCI-H522 lung) was > 100 µM. For the same compound, the TGI (A549 NSCLC) was > 100 µM, the TGI (OVCAR-3 ovarian) was > 100 µM and the TGI (T-47D breast) was > 100 µM. The TGI (SNB-75 CNS) was > 100 µM, the TGI (UO-31 renal) was > 100 µM and the TGI (SK-MEL-2 melanoma) was > 100 µM. For the same compound, the TGI (K-562 leukemia) was > 100 µM, the TGI (M14 melanoma) was > 100 µM and the TGI (SF-295 CNS) was > 100 µM. The TGI (DU-145 prostate) was > 100 µM, the TGI (HCC-2998 colon) was > 100 µM and the TGI (SF-268 CNS) was > 100 µM. For the same compound, the TGI (U251 CNS) was > 100 µM, the TGI (SNB-19 CNS) was > 100 µM and the TGI (OVCAR-8 ovarian) was > 100 µM. For the same compound, the TGI (MDA-MB-435) was > 100 µM, the TGI (CAKI-1 renal) was > 100 µM and the TGI (EKVX NSCLC) was > 100 µM. The TGI (NCI-H460 lung) was > 100 µM, the TGI (MDA-MB-231 breast) was > 100 µM and the TGI (SR leukemia) was > 100 µM. For the same compound, the TGI (MALME-3M melanoma) was > 100 µM, the TGI (SK-MEL-5 melanoma) was > 100 µM and the TGI (786-0 renal) was > 100 µM. The TGI (HS 578T breast) was > 100 µM, the TGI (HCT-116 colon) was > 100 µM and the TGI (A498 renal) was > 100 µM. The TGI (UACC-62 melanoma) was > 100 µM, the TGI (PC-3 prostate) was > 100 µM and the TGI (HOP-92 NSCLC) was > 100 µM. The TGI (SK-MEL-28 melanoma) was > 100 µM, the TGI (COLO 205 colon) was > 100 µM and the TGI (CCRF-CEM leukemia) was > 100 µM. The TGI (LOX IMVI melanoma) was > 100 µM, the TGI (RPMI-8226 leukemia) was > 100 µM and the TGI (SK-OV-3 ovarian) was > 100 µM. For the same compound, the TGI (HOP-62 NSCLC) was > 100 µM, the TGI (HL-60(TB) leukemia) was > 100 µM and the TGI (OVCAR-4 ovarian) was > 100 µM. The TGI (NCI/ADR-RES ovarian) was > 100 µM, the TGI (IGROV1 ovarian) was > 100 µM and the TGI (ACHN renal) was > 100 µM. For the same compound, the TGI (BT-549 breast) was > 100 µM, the TGI (NCI-H23 lung) was > 100 µM and the TGI (SW-620 colon) was > 100 µM. For the same compound, the TGI (OVCAR-5 ovarian) was > 100 µM.
For `O=C(/C=N/O)c1c(-c2ccccc2)[nH]c(-c2ccccc2)c1-c1ccccc1`, the TGI (MOLT-4 leukemia) was 31.1 µM, the TGI (TK-10 renal) was 40.8 µM and the TGI (KM12 colon) was 28.2 µM. It also gave a TGI (NCI-H226 lung) of 83.4 µM, a TGI (UACC-257 melanoma) of 35 µM and a TGI (RXF 393 renal) of 31.6 µM. For the same compound, the TGI (HT29 colon) was 61 µM, the TGI (HCT-15 colon) was 45.8 µM and the TGI (NCI-H522 lung) was 30.8 µM. For the same compound, the TGI (A549 NSCLC) was 45.2 µM, the TGI (OVCAR-3 ovarian) was 58.7 µM and the TGI (T-47D breast) was > 100 µM. The TGI (SNB-75 CNS) was 55.7 µM, the TGI (UO-31 renal) was 36.3 µM and the TGI (SK-MEL-2 melanoma) was 24 µM. The TGI (MCF7 breast) was 39.7 µM, the TGI (K-562 leukemia) was > 100 µM and the TGI (M14 melanoma) was 73.6 µM. It also gave a TGI (SF-295 CNS) of 34.2 µM, a TGI (DU-145 prostate) of 12.3 µM and a TGI (HCC-2998 colon) of 58.1 µM. It also gave a TGI (SF-268 CNS) of 49.7 µM, a TGI (U251 CNS) of 32.3 µM and a TGI (SNB-19 CNS) of 34.2 µM. For the same compound, the TGI (MDA-MB-435) was 28.3 µM, the TGI (CAKI-1 renal) was 48.1 µM and the TGI (EKVX NSCLC) was 19 µM. It also gave a TGI (NCI-H460 lung) of 41.8 µM, a TGI (MDA-MB-231 breast) of 28.7 µM and a TGI (SF-539 CNS) of 26.9 µM. For the same compound, the TGI (MALME-3M melanoma) was 32.9 µM, the TGI (SK-MEL-5 melanoma) was 32.8 µM and the TGI (786-0 renal) was > 100 µM. For the same compound, the TGI (HS 578T breast) was 85.2 µM, the TGI (HCT-116 colon) was 72.6 µM and the TGI (A498 renal) was 62.4 µM. The TGI (UACC-62 melanoma) was 28.7 µM, the TGI (HOP-92 NSCLC) was 67.1 µM and the TGI (SK-MEL-28 melanoma) was 39 µM. For the same compound, the TGI (COLO 205 colon) was 36.6 µM, the TGI (CCRF-CEM leukemia) was > 100 µM and the TGI (LOX IMVI melanoma) was 41.3 µM. For the same compound, the TGI (RPMI-8226 leukemia) was 31.4 µM, the TGI (SK-OV-3 ovarian) was 35.1 µM and the TGI (HOP-62 NSCLC) was > 100 µM. For the same compound, the TGI (HL-60(TB) leukemia) was > 100 µM, the TGI (SN12C renal) was 35.2 µM and the TGI (OVCAR-4 ovarian) was 42.9 µM. It also gave a TGI (NCI/ADR-RES ovarian) of 25.5 µM, a TGI (IGROV1 ovarian) of 28.4 µM and a TGI (ACHN renal) of 43.4 µM. The TGI (BT-549 breast) was 11.3 µM, the TGI (NCI-H23 lung) was 21.3 µM and the TGI (SW-620 colon) was 48.7 µM. For the same compound, the TGI (OVCAR-5 ovarian) was 21.7 µM.
